{"source": "patent US11260050B2", "about": "“Combination of cotinine plus antioxidant for treatment-resistant depression and correction of astrocytes functional deficit induced by depression and other neuropathological” (UNIVERSIDAD SAN SEBASTIAN, priority 2017, dated 2022)", "key": {"conditioned mice": {"test_system": "conditioned mice", "test": "Forced swim test after fear conditioning and extinction (Example 4)", "type": "in vivo, Mice C57BL/6", "settings": "FC mice after extinction; Tukey: cotinine p<0.001, combination p<0.005, sertraline p<0.05", "protocol": "Three-month-old mice (n=5-6/condition) were weighed and assigned to treatment groups. Mice were treated with vehicle or drugs, starting two h after fear conditioning and daily after behavioral testing until euthanasia. Mice received daily treatments with 1. PBS (phosphate buffer saline, pH 7.4) via intranasal; 2. Cotinine (10 mg/ml) dissolved in PBS via intranasal (IN Cot, 24 μl); 3. Krill oil dissolved in PBS, via intranasal (48 mg/ml, 24 μl); 4. Cotinine (10 mg/ml) plus krill oil dissolved in PBS, via intranasal (48 mg/ml, 24 μl); 5.\nFor intranasal delivery, mice were hand-restrained, placed in a supine position, and given two 12 μl drops of cotinine solutions, or PBS, into both nares consecutively. Mice were given an extra 12 μl treatment drop if the subject forcibly ejected or sneezed out the solution. Mice were held supine for 5-10 seconds after delivery to ensure that all fluid was inhaled."}, "restrained mice": {"test_system": "restrained mice", "test": "Forced swim test after chronic restraint stress (Example 2)", "type": "in vivo, C57BL/6 male mice", "settings": "IN cotinine post-treatment, p<0.01", "protocol": "Mice between 2-3 months of age after one week of acclimatization were randomly divided into two groups. Stressed mice were subjected to restraint stress. Control (non-restrained) mice were allowed to move freely during this period. After the stress exposure period, mice were divided into three experimental groups: 1) Non-restrained mice treated with vehicle (PBS, pH 7.4) serving as unstressed controls (n=8); 2) Restrained mice (RS) treated with vehicle (n=8); 3), RS mice treated with 24 μl of a cotinine solution (10 mg/ml in PBS, pH 7.4) via intranasal route of administration (n=6). Treatments were administered daily until euthanasia. After two weeks of treatments mice were behaviorally tested and euthanized (FIG. 10) Intranasal delivery was performed as previously described (Hanson and Frey, 2007). Mice at 2-3 months of age were hand-restrained, positioned in a supine position, and administered two 12 μl drops of cotinine solution (10 mg/ml in PBS), or PBS alone, into both nares. Mice were given an extra 12 μl treatment drop if the mouse expelled out the solution. Mice were kept in the supine posture for 5 seconds after delivery to facilitate the delivery. The administration was performed daily until euthanasia. […] Mice were placed in a transparent cylinder filled with water at 25° C. for 5 min and behavior was recorded. […]"}, "mice": {"test_system": "mice", "settings": "absence of stress, cotinine treatment for up to eight months; cited from earlier work"}, "[1]": {"test_system": "mice subjected to restraint stress", "test": "Light-dark box after restraint stress (Example 1, Experiment 1)", "type": "in vivo, C57BL/6 mice", "settings": "RS mice treated with cotinine; p=0.035", "protocol": "(§1) Mice were treated immediately after the 21 days of immobilization stress (6 h/day) until euthanasia. Mice (n=5-8/condition) received daily treatments with 1. PBS (phosphate buffer saline, pH 7.4) via intranasal (2×12 μl/nostril), 2. PBS via gavage (50 μl); 3. Cotinine dissolved in PBS via oral (gavage, (0.5 mg/kg; Cot 0.5); 4. Cotinine dissolved in PBS via intranasal (Cot IN, 10 mg/ml, 2×12 μl/nostril).\n(§2) To induce chronic stress, the restraint stress paradigm was used as previously described. Mice are immobilized in 50 ml falcon plastic tubes that were attached to mouse cages. The immobilization proceeded during 6 h from 9:00 AM to 3:00 PM in absence of treatments. Tubes have holes in the opposite side of the tube to allow the animal breathing and urination. Mice were almost completely immobilized for 6 h/day for 21 days after which they were permitted freely to move, eat and drink.\nBehavioral analysis was performed using the Any-maze® software (Stoelting CO, USA) to track the activity of animals. Mice were tested for depressive behavior, anxiety, locomotor activity and working memory using the Porsolt's test; Light-dark box (LDB) and the elevated plus Maze (EPM), open field (OF), and Novel object recognition (NOR), respectively."}, "GFAP": {"test_system": "GFAP", "test": "GFAP immunofluorescence, morphometric analysis and cell counting in the dentate gyrus (Example 3)", "type": "in vivo, C57BL/6J mice", "settings": "restrained mice, oral co-treatment; vs vehicle-treated restrained mice", "method": "Mice after acclimatization and one week of handling were randomly divided into five groups (n=8/condition) and orally treated as follow: 1) control non-restrained mice treated with vehicle (PBS, pH 7.4); 2) restrained mice treated with vehicle; 3), restrained mice treated with a cotinine solution (5 mg/kg in PBS, pH 7.4) via gavage; 4) restrained mice treated with KO (143 mg/kg); 5) restrained mice treated with cotinine plus KO solution. Mice were started with treatments, the first day of restraint and continuously until euthanasia. Treatments were administered at the same time of the day, 30 min before restraint.\nFor the immunohistochemistry (IHC) and fluorescent IHC (F-IHC) analysis the right hemisphere of each mouse brain was placed in 4% paraformaldehyde in PBS pH 7.4 at 4° C. for 24 h. The tissues were embedded in 2% agarose molds for vibratome sectioning.\nFor the F-IHC, samples were washes 3 times for 7 min with Tris-buffered saline (TBS), pH 7.8. The primary antibody anti-GFAP (1:50, BioSB) was diluted in diluent buffer, containing TBS supplemented with 1% bovine serum albumin (BSA) and 0.2% Triton X-100, and incubated with the tissue sections overnight (ON) at 4° C. […] The samples were counterstained with Hoechst (1:1000) and mounted with fluorescence mounting medium (Prolong, Invitrogen). […]\nIn each image, a region of interest (ROI) that represented the dentate gyrus was determined using free-hand drawing. For each ROI, the mean gray values (MGV), representing the area fraction with immunoreactivity for GFAP, were measured. To measure the fluorescence intensity of GFAP immunostaining in the dentate gyrus, maximum intensity projections of confocal z-stacks acquired from sagittal brain sections were converted into 8-bit greyscale images with 256 scales (pixel intensity 0 corresponding to no signal and 255 to maximal signal) by ImageJ software. […] For the GFAP+ cell counting, cell to be counted must had at least half of the cell nucleus visible on the edge of the ROI and cells were not included in the analysis if they were adherent to blood vessel walls."}, "[2]": {"test_system": "mice subjected to fear conditioning", "test": "Contextual fear retention and extinction (Example 1, Experiment 3)", "type": "in vivo, C57BL/6 mice", "source_text": "Between trials, the chamber was sanitized with 70% ethanol and dried."}, "[3]": {"test_system": "mice subjected to restraint stress", "test": "Elevated plus maze after restraint stress (Example 1, Experiment 1)", "type": "in vivo, C57BL/6 mice", "settings": "RS mice, post-treatment with cotinine", "protocol": "as §1, §2\nAnxiety was assessed through the elevated plus maze (EPM). EPM is considered one of the best choices to test anxiolytic effects of drugs. This test is based on the observation that most of the time higher anxiety levels will diminish the time exploring new environments as a form to avoid danger (open arms).\nTo determine the level of anxiety, mice were tested in the EPM. […]"}, "[4]": {"test_system": "mice subjected to restraint stress", "test": "Porsolt test after restraint stress, intranasal post-treatment (Example 1, Experiment 1)", "type": "in vivo, C57BL/6 mice", "settings": "RS mice post-treated with cotinine via IN; p<0.01", "protocol": "as §1, §2\nThis test is used to measure the antidepressant effects of drugs, and consists in placing each mouse in a transparent cylinder filled with water at room temperature (RT). After a brief period of strong activity, rodents adopt a characteristic immobile posture. The time mice spent immobile is a measure of depressive-like behavior. The immobility time will be recorded during a 15-min and a next day 5-min trial. The time spent by each mouse immobile will be recorded."}}}
{"smiles": "CN1C(=O)CC[C@H]1c1cccnc1", "note": "[Cotinine, (5S)-1-methyl-5-(3-pyridyl) pyrrolidin-2-one]", "values": [{"measurement": "depressive-like behavior (immobility) in the forced swim test", "setting": "conditioned mice", "result": "significantly decreased depressive-like behavior"}, {"measurement": "immobility in the forced swim test", "setting": "restrained mice", "result": "significantly lower than PBS-treated restrained mice"}, {"measurement": "sensory motor abilities or anxiety", "setting": "mice", "result": "did not induce significant differences in sensory motor abilities or anxiety"}, {"measurement": "number of entries to the light zone (light-dark box)", "setting": "[1]", "result": "almost completely restored the number of entries to the light zone"}, {"measurement": "mean gray value (GFAP IR intensity) in the dentate gyrus", "setting": "GFAP", "result": "significant increase of the IR intensity"}, {"measurement": "number of GFAP+ cells (cell density) in the dentate gyrus", "setting": "GFAP", "result": "significant increase of cell density"}, {"measurement": "percent area fraction occupied by GFAP+ cells in the dentate gyrus", "setting": "GFAP", "result": "significant increase in the GFAP+ fraction area"}, {"measurement": "freezing in the contextual retention test (consolidation of fear memory)", "setting": "[2]; IN treatment started 2 h after FC, test 24 h after FC", "result": "levels of freezing similar to control mice"}, {"measurement": "freezing behavior during contextual fear extinction trials", "setting": "[2]; daily IN treatment, daily 3 min re-exposure", "result": "significant enhancement of memory extinction on day 2 and 3"}, {"measurement": "day of maximal decrease in freezing during extinction", "setting": "[2]; daily IN treatment, control mice day 5", "result": 3, "unit": "days"}, {"measurement": "locomotor activity (distance traveled) in the EPM", "setting": "[3]; Tukey p<0.01", "result": "reduced significantly the locomotor activity in the RS mice"}, {"measurement": "rearing activity in the elevated plus maze", "setting": "[3]; vs Ctrl non-restrained mice", "result": "did not show differences with Ctrl non-restrained mice"}, {"measurement": "depressive-like behavior (freezing/immobility) in the Porsolt test", "setting": "[4]", "result": "significant decrease in depressive-like behavior"}]}
